This passage reports EC50 results from BindingDB's records for doi:10.7270/Q2D50KGC (Burnham Center For Chemical Genomics, 2011).

The assay addresses T1, Endoribonuclease toxin MazF (Escherichia coli (strain K12), UniProt P0AE70).
T1 sequence (P0AE70 whole entry): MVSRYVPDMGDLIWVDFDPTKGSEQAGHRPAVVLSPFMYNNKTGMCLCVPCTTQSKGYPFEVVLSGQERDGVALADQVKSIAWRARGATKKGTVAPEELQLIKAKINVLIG
Description: MazF endoribonuclease activators, SAR follow-up, biochemical, fluorescence, single-stranded RNA substrate (AID 588603).
The EC50 is the concentration that produces a half-maximal response. A lower EC50 goes with a more potent agent. Compound `N#Cc1ccc(-n2c(O)c3[nH][nH]c(C(=O)c4ccc5ccccc5n4)c-3c2=O)cc1` [4-[(3aS,6aS)-4,6-dioxo-3-[oxo(2-quinolinyl)methyl]-3a,6a-dihydro-1H-pyrrolo[3,4-c]pyrazol-5-yl]benzonitrile] came in with an EC50 of 7.74 µM.

`C=CCOc1cccc(C2C(C(=O)c3ccc(C)o3)C(=O)C(=O)N2c2nccs2)c1` (stereo not drawn) [3-(5-methylfuran-2-yl)carbonyl-4-oxidanyl-2-(3-prop-2-enoxyphenyl)-1-(1,3-thiazol-2-yl)-2H-pyrrol-5-one] returned an EC50 of 22.3 µM.

As to `O=C(c1ccc2ccccc2n1)c1[nH][nH]c2c(O)n(-c3cccc(F)c3)c(=O)c1-2` [(3aS,6aS)-5-(3-fluorophenyl)-3-[oxo(2-quinolinyl)methyl]-3a,6a-dihydro-1H-pyrrolo[3,4-c]pyrazole-4,6-dione], a half-maximal effect (EC50) was put at 24.4 µM.
